Measurements as given in publication PMC5730985 (Analytical biochemistry, 2017).
Like-named read-outs stand apart in the source and are kept apart here.

Tested on: PLR3
Assay: light-based bioluminescence assay
Format: biochemical, Photinus pyralis
Conditions: pH 7.4

| Structure (SMILES) | Km (read-out: Km (μM) / LH2, co-substrate Mg-ATP, O2) | Km (read-out: Km (μM) / Mg-ATP, co-substrate LH2, O2, Mg complex) |
| --- | --- | --- |
| O=C(O)[C@H]1CSC(c2nc3ccc(O)cc3s2)=N1 [LH2] | 17 ± 3 µM |  |
| Nc1ncnc2c1ncn2[C@@H]1O[C@H](COP(=O)(O)OP(=O)(O)OP(=O)(O)O)[C@@H](O)[C@H]1O [Mg-ATP] |  | 12 ± 2 µM |
